From article PMC11343403, “A novel TREX1 inhibitor, VB-85680, upregulates cellular interferon responses” (PLOS ONE, 2024)

What was measured:
[1] = molecular target: T1, TREX1 (Three-prime Repair EXonuclease 1), mouse (Mus musculus, UniProt Q91XB0); experiment: fluorescence exonuclease assay (FAM-12mer-BHQ1) in HEK293T overexpression lysate, with D18N and empty-vector controls; format: biochemical
T1 construct: full-length mouse TREX1 (wild-type), overexpressed in HEK293T
T1 sequence (Q91XB0 1-314): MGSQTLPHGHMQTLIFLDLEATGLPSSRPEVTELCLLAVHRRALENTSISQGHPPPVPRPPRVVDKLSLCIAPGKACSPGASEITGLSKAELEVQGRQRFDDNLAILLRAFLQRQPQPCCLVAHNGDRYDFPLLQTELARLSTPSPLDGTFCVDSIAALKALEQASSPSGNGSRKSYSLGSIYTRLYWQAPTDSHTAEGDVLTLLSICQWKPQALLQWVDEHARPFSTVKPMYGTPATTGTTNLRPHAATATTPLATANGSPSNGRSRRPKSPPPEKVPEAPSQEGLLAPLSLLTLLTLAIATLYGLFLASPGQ

[2] = molecular target: T2, TREX1 (Three-prime Repair EXonuclease 1), human (Homo sapiens, UniProt Q9NSU2); experiment: BioVision […]' to […]' exonuclease activity assay in THP1-Dual lysate, with TREX1 knockout lysate control; format: biochemical
T2 construct: endogenous human TREX1 in THP1-Dual cell lysate
T2 sequence (Q9NSU2 1-314): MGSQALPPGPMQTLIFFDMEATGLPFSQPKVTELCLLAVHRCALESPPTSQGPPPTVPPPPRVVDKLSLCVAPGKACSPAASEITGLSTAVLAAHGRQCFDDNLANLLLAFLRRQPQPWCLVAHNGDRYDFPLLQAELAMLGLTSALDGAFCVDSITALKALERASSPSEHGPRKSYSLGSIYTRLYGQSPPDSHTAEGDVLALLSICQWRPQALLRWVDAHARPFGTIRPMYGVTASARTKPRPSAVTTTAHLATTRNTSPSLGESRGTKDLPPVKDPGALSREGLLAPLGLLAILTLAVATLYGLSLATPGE

IC50 [1]: 3.1 nM
IC50 [2]: 48.8 nM
Substance: VB-85680
